Measurements as given in US20240368163A1, “COMPOUNDS AND METHODS FOR MODULATING SPLICING” (REMIX THERAPEUTICS INC., priority 2021, published 2024).

What was measured:
Assay type in all cases: cell-based, human
HTT [1] = experiment: Splicing RT-qPCR assay, HTT mRNA canonical junction (CJ) and alternative junction (AJ); details: Homo sapiens; for AC50: increase in AJ mRNA
How it was run: (§1)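 Splice switching is measured in A673 or K562 cells after 24 h compound exposure (maximum 10 uM, 3-fold steps). Canonical and alternative junction mRNA levels are quantified by RT-qPCR relative to housekeeper and DMSO.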

MYB [2] = experiment: Splicing RT-qPCR assay, MYB mRNA canonical junction (CJ) and alternative junction (AJ); details: Homo sapiens; for AC50: increase in AJ mRNA
How it was run: as §1

SMN2 = experiment: Splicing RT-qPCR panel, SMN2 canonical junction (CJ) mRNA; details: Homo sapiens, RT-qPCR panel, canonical junction mRNA; compound concentration having 50% response in CJ decrease; read-out: SMN2 IC50 (decrease in CJ mRNA levels)
How it was run: as §1

Target C [3] = experiment: Splicing RT-qPCR panel, Target C canonical junction (CJ) mRNA; details: Homo sapiens, RT-qPCR panel, canonical junction mRNA; compound concentration having 50% response in CJ decrease; read-out: Target C IC50 (decrease in CJ mRNA levels)
How it was run: as §1

MYB [4] = experiment: HiBiT protein abundance assay, MYB; details: Homo sapiens, K562, 24 h, Table 13A, modified K562 cells
How it was run: (§2)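 Luminescent readout from lytic HiBiT/LgBiT complementation reports endogenous tagged protein level in engineered K562 cells. Compounds dosed 24 h, top 10 μM final, 3-fold steps, 10 points. IC50 is the concentration giving 50% of untreated-control abundance, from 4-parameter logistic fit.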

HTT [5] = experiment: HiBiT protein abundance assay, HTT; details: Homo sapiens, K562, 24 h, Table 13A, modified K562 cells
How it was run: as §2

Target C [6] = experiment: HiBiT protein abundance assay, Target C; details: Homo sapiens, K562, 24 h, Table 13A, modified K562 cells
How it was run: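 Knock-in HiBiT clones, 10000/well; 10-pt 3-fold titration, top 10 μM final; DMSO ≤0.25%; 24 h, 37 °C, 5% CO2. Lytic HiBiT luminescence readout. 4PL fit, IC50 = concentration giving 50% of untreated abundance.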

[7] = 24 h, decrease in CJ mRNA, A673 or K562 cells, 24 hours treatment, RT-qPCR, read-out: HTT CJ IC50
[8] = 24 h, A673 or K562 cells, 24 hours treatment, RT-qPCR
[9] = RT-qPCR panel, canonical junction mRNA, compound concentration having 50% response in CJ decrease, read-out: HTT IC50 (decrease in CJ mRNA levels)
[10] = 24 h, decrease in CJ mRNA, A673 or K562 cells, 24 hours treatment, RT-qPCR, read-out: MYB CJ IC50
[11] = RT-qPCR panel, canonical junction mRNA, compound concentration having 50% response in CJ decrease, read-out: MYB IC50 (decrease in CJ mRNA levels)

## c1nc2c(-c3cn[nH]c3)ccc(-c3ccc(N4CC5(CCNCC5)C4)nn3)c2s1 [Compound 197]
HTT [1]; [7]
  IC50: 1 to 10 µM
HTT [1]; [8]
  AC50: 1 to 10 µM
HTT [1]; [9]
  IC50: 1 to 10 µM
MYB [2]; [10]
  IC50: > 10 µM
MYB [2]; [8]
  AC50: > 10 µM
MYB [2]; [11]
  IC50: > 10 µM
SMN2
  IC50: 1000 to 10000 nM
Target C [3]
  IC50: > 10 µM
MYB [4]
  IC50: 1000 to 10000 nM
HTT [5]
  IC50: 1 to 10 µM
Target C [6]
  IC50: 1 to 10 µM

## CN1C[C@@H]2CN(c3ccc(-c4ccc(-c5cn[nH]c5)c5ncsc45)nn3)C[C@@H]2C1 [Compound 198]
HTT [1]; [7]
  IC50: > 10 µM
HTT [1]; [8]
  AC50: > 10 µM
HTT [1]; [9]
  IC50: > 10 µM
MYB [2]; [10]
  IC50: > 10 µM
MYB [2]; [8]
  AC50: > 10 µM
MYB [2]; [11]
  IC50: > 10 µM
SMN2
  IC50: 100 to 1000 nM
Target C [3]
  IC50: > 10 µM
MYB [4]
  IC50: 1000 to 10000 nM
HTT [5]
  IC50: > 10 µM
Target C [6]
  IC50: > 10 µM

## c1nc2c(-c3cn[nH]c3)ccc(-c3ccc(S[C@@H]4C[C@H]5CC[C@@H](C4)N5)nn3)c2s1 [Compound 200]
HTT [1]; [7]
  IC50: > 10 µM
HTT [1]; [8]
  AC50: > 10 µM
HTT [1]; [9]
  IC50: > 10 µM
MYB [2]; [10]
  IC50: > 10 µM
MYB [2]; [8]
  AC50: > 10 µM
MYB [2]; [11]
  IC50: > 10 µM
SMN2
  IC50: > 10000 nM
Target C [3]
  IC50: > 10 µM
MYB [4]
  IC50: 1000 to 10000 nM
HTT [5]
  IC50: 1 to 10 µM
Target C [6]
  IC50: 1 to 10 µM

## Cc1ncc(-c2ccc(-c3ccc(N(C)C4CC(C)(C)NC(C)(C)C4)nc3)c3ncsc23)o1 [Compound 201]
HTT [1]; [7]
  IC50: 1 to 10 µM
HTT [1]; [8]
  AC50: 1 to 10 µM
HTT [1]; [9]
  IC50: 1 to 10 µM
MYB [2]; [10]
  IC50: 1 to 10 µM
MYB [2]; [8]
  AC50: 1 to 10 µM
MYB [2]; [11]
  IC50: 1 to 10 µM
SMN2
  IC50: 100 to 1000 nM
Target C [3]
  IC50: 1 to 10 µM
MYB [4]
  IC50: 1000 to 10000 nM
HTT [5]
  IC50: 1 to 10 µM
Target C [6]
  IC50: > 10 µM

## CN(c1ccc(-c2ccc(-c3cn[nH]c3)c3ncsc23)nn1)[C@H]1[C@@H]2CNC[C@@H]21 [Compound 205]
HTT [1]; [7]
  IC50: > 10 µM
HTT [1]; [8]
  AC50: > 10 µM
HTT [1]; [9]
  IC50: > 10 µM
MYB [2]; [10]
  IC50: > 10 µM
MYB [2]; [8]
  AC50: > 10 µM
MYB [2]; [11]
  IC50: > 10 µM
SMN2
  IC50: 1000 to 10000 nM
Target C [3]
  IC50: > 10 µM
MYB [4]
  IC50: 1000 to 10000 nM
HTT [5]
  IC50: > 10 µM
Target C [6]
  IC50: 1 to 10 µM

## c1nc2c(-c3cn[nH]c3)ccc(-c3ccc(C4CCNCC4)nn3)c2s1 [Compound 206]
HTT [1]; [7]
  IC50: 1 to 10 µM
HTT [1]; [8]
  AC50: > 10 µM
HTT [1]; [9]
  IC50: 1 to 10 µM
MYB [2]; [10]
  IC50: 1 to 10 µM
MYB [2]; [8]
  AC50: 0.1 to 1 µM
MYB [2]; [11]
  IC50: 1 to 10 µM
SMN2
  IC50: < 100 nM
Target C [3]
  IC50: > 10 µM
MYB [4]
  IC50: 1000 to 10000 nM
HTT [5]
  IC50: 1 to 10 µM
Target C [6]
  IC50: > 10 µM

## CN(c1ccc(-c2ccc(-c3cnn(C)c(=O)c3)c3scnc23)nn1)C1CC(C)(C)NC(C)(C)C1 [Compound 211]
HTT [1]; [7]
  IC50: 0.1 to 1 µM
HTT [1]; [8]
  AC50: 0.1 to 1 µM
HTT [1]; [9]
  IC50: 0.1 to 1 µM
MYB [2]; [10]
  IC50: 0.1 to 1 µM
MYB [2]; [8]
  AC50: 0.1 to 1 µM
MYB [2]; [11]
  IC50: 0.1 to 1 µM
SMN2
  IC50: 100 to 1000 nM
Target C [3]
  IC50: 0.1 to 1 µM
MYB [4]
  IC50: 100 to 1000 nM
HTT [5]
  IC50: 0.1 to 1 µM
Target C [6]
  IC50: 0.1 to 1 µM

## c1nc2c(-c3cn[nH]c3)ccc(-c3ccc(NC4CCNCC4)nn3)c2s1 [Compound 214]
HTT [1]; [7]
  IC50: > 10 µM
HTT [1]; [8]
  AC50: 1 to 10 µM
HTT [1]; [9]
  IC50: > 10 µM
MYB [2]; [10]
  IC50: 1 to 10 µM
MYB [2]; [8]
  AC50: > 10 µM
MYB [2]; [11]
  IC50: 1 to 10 µM
SMN2
  IC50: 100 to 1000 nM
Target C [3]
  IC50: > 10 µM
MYB [4]
  IC50: 1000 to 10000 nM
HTT [5]
  IC50: 1 to 10 µM
Target C [6]
  IC50: > 10 µM

## c1n[nH]cc1-c1ccc(-c2ccc(N3CC4(CCCNC4)C3)nn2)c2[nH]ncc12 [Compound 218]
HTT [1]; [7]
  IC50: > 10 µM
HTT [1]; [8]
  AC50: > 10 µM
HTT [1]; [9]
  IC50: > 10 µM
MYB [2]; [10]
  IC50: > 10 µM
MYB [2]; [8]
  AC50: > 10 µM
MYB [2]; [11]
  IC50: > 10 µM
SMN2
  IC50: > 10000 nM
Target C [3]
  IC50: > 10 µM
MYB [4]
  IC50: > 10000 nM
HTT [5]
  IC50: > 10 µM
Target C [6]
  IC50: > 10 µM

## c1nc2c(-c3cn[nH]c3)ccc(-c3ccc(O[C@@H]4C[C@H]5CCC[C@@H](C4)N5)nn3)c2[nH]1 [Compound 219]
HTT [1]; [7]
  IC50: 0.1 to 1 µM
HTT [1]; [8]
  AC50: 0.1 to 1 µM
HTT [1]; [9]
  IC50: 0.1 to 1 µM
MYB [2]; [10]
  IC50: 0.1 to 1 µM
MYB [2]; [8]
  AC50: 0.1 to 1 µM
MYB [2]; [11]
  IC50: 0.1 to 1 µM
SMN2
  IC50: < 100 nM
Target C [3]
  IC50: 0.1 to 1 µM
MYB [4]
  IC50: 100 to 1000 nM
HTT [5]
  IC50: < 0.1 µM
Target C [6]
  IC50: 0.1 to 1 µM
